Tested on: 883617-216-R-J1-PDC complex spheroids, growth, % test/control
Test: Anticancer human tumor 883617-216-R-J1-PDC patient-derived bladder carcinoma cell line growth inhibition [AhR]
Details: for IC50: curve of first compound; for viability, T/C: stronger effect = lower value; active means viability on the fitted dose curve at most 10% of control; inactive means the rest
Outline: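 Agents were dosed in half-log steps down from roughly clinical Cmax, or from 10 microM where Cmax was unknown, alone and with AhR antagonists. Read-out: percent test/control growth of tumor spheroids containing HUVEC and MSC stromal cells.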

[1] = second compound 0.1 µM, first compound 0.0316 µM
[2] = second compound 0.1 µM, first compound 0.1 µM
[3] = second compound 0.1 µM, first compound 0.316 µM
[4] = second compound 0.1 µM, first compound 1 µM
[5] = second compound 0.1 µM, first compound 3.16 µM
[6] = second compound 0.1 µM, first compound 10 µM
[7] = second compound 0.316 µM, first compound 0.0316 µM
[8] = second compound 0.316 µM, first compound 0.1 µM
[9] = second compound 0.316 µM, first compound 0.316 µM
[10] = second compound 0.316 µM, first compound 1 µM
[11] = second compound 0.316 µM, first compound 3.16 µM
[12] = second compound 0.316 µM, first compound 10 µM
[13] = second compound 1 µM, first compound 0.0316 µM
[14] = second compound 1 µM, first compound 0.1 µM
[15] = second compound 1 µM, first compound 0.316 µM
[16] = second compound 1 µM, first compound 1 µM
[17] = second compound 1 µM, first compound 3.16 µM
[18] = second compound 1 µM, first compound 10 µM
[19] = second compound 3.16 µM, first compound 0.0316 µM
[20] = second compound 3.16 µM, first compound 0.1 µM
[21] = second compound 3.16 µM, first compound 0.316 µM
[22] = second compound 3.16 µM, first compound 1 µM
[23] = second compound 3.16 µM, first compound 3.16 µM
[24] = second compound 3.16 µM, first compound 10 µM
[25] = second compound 10 µM, first compound 0.0316 µM
[26] = second compound 10 µM, first compound 0.1 µM
[27] = second compound 10 µM, first compound 0.316 µM
[28] = second compound 10 µM, first compound 1 µM
[29] = second compound 10 µM, first compound 3.16 µM
[30] = second compound 10 µM, first compound 10 µM
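Further: exposure lasted 7 days after dosing on day 3 of spheroid growth.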

CCc1c2c(nc3ccc(O)cc13)-c1cc3c(c(=O)n1C2)COC(=O)[C@]3(O)CC + Cc1cncc(-c2nc(NCCc3c[nH]c4ccccc34)c3ncn(C(C)C)c3n2)c1
265 nM: IC50 (second compound 3.16 µM)
inactive: viability, T/C (second compound 0.1 µM, first compound 0.000949 µM) 85.1% | viability, T/C (second compound 0.1 µM, first compound 0.003 µM) 79.9% | viability, T/C (second compound 0.1 µM, first compound 0.00949 µM) 79% | viability, T/C (second compound 0.1 µM, first compound 0.03 µM) 71.2% | viability, T/C (second compound 0.1 µM, first compound 0.0949 µM) 61.1% | viability, T/C (second compound 0.1 µM, first compound 0.3 µM) 49% | viability, T/C (second compound 0.316 µM, first compound 0.000949 µM) 83.9% | viability, T/C (second compound 0.316 µM, first compound 0.003 µM) 94.5% | viability, T/C (second compound 0.316 µM, first compound 0.00949 µM) 77.5% | viability, T/C (second compound 0.316 µM, first compound 0.03 µM) 65.8% | viability, T/C (second compound 0.316 µM, first compound 0.0949 µM) 56.4% | viability, T/C (second compound 0.316 µM, first compound 0.3 µM) 54.3% | viability, T/C (second compound 1 µM, first compound 0.000949 µM) 87.6% | viability, T/C (second compound 1 µM, first compound 0.003 µM) 89.3% | viability, T/C (second compound 1 µM, first compound 0.00949 µM) 84.7% | viability, T/C (second compound 1 µM, first compound 0.03 µM) 72.5% | viability, T/C (second compound 1 µM, first compound 0.0949 µM) 64.3% | viability, T/C (second compound 1 µM, first compound 0.3 µM) 53.9% | viability, T/C (second compound 3.16 µM, first compound 0.000949 µM) 91.9% | viability, T/C (second compound 3.16 µM, first compound 0.003 µM) 99.5% | viability, T/C (second compound 3.16 µM, first compound 0.00949 µM) 86.1% | viability, T/C (second compound 3.16 µM, first compound 0.03 µM) 88.9% | viability, T/C (second compound 3.16 µM, first compound 0.0949 µM) 55.8% | viability, T/C (second compound 3.16 µM, first compound 0.3 µM) 49.4% | viability, T/C (second compound 10 µM, first compound 0.000949 µM) 44.6% | viability, T/C (second compound 10 µM, first compound 0.003 µM) 48.3% | viability, T/C (second compound 10 µM, first compound 0.00949 µM) 27.3% | viability, T/C (second compound 10 µM, first compound 0.03 µM) 31.3% | viability, T/C (second compound 10 µM, first compound 0.0949 µM) 25.5% | viability, T/C (second compound 10 µM, first compound 0.3 µM) 27.1%
270 nM: IC50 (second compound 0.1 µM)
< 0.949 nM: IC50 (second compound 10 µM)
> 300 nM: IC50 (second compound 0.316 µM) | IC50 (second compound 1 µM)

NS(=O)(=O)OCC1CC(n2ccc3c(NC4CCc5ccccc54)ncnc32)CC1O (stereo not given) + Cc1ccccc1N=Nc1ccc(NC(=O)c2ccnn2C)c(C)c1
2480 nM: IC50 (second compound 1 µM) | IC50 (second compound 3.16 µM)
2500 nM: IC50 (second compound 0.1 µM)
2350 nM: IC50 (second compound 0.316 µM)
inactive: viability, T/C [1] 143% | viability, T/C [2] 184% | viability, T/C [3] 253% | viability, T/C [4] 137% | viability, T/C [5] 37.4% | viability, T/C [6] 18.3% | viability, T/C [7] 131% | viability, T/C [8] 173% | viability, T/C [9] 240% | viability, T/C [10] 119% | viability, T/C [11] 30.9% | viability, T/C [12] 20.6% | viability, T/C [13] 127% | viability, T/C [14] 156% | viability, T/C [15] 256% | viability, T/C [16] 125% | viability, T/C [17] 39.3% | viability, T/C [18] 20.9% | viability, T/C [19] 121% | viability, T/C [20] 146% | viability, T/C [21] 233% | viability, T/C [22] 128% | viability, T/C [23] 37.4% | viability, T/C [24] 18.5% | viability, T/C [25] 118% | viability, T/C [26] 179% | viability, T/C [27] 210% | viability, T/C [28] 125% | viability, T/C [29] 43.6% | viability, T/C [30] 17.4%
2690 nM: IC50 (second compound 10 µM)

COc1cccc2c1C(=O)c1c(O)c3c(c(O)c1C2=O)CC(O)(C(=O)CO)CC3OC1CC(N)C(O)C(C)O1 (stereo not given) + CC(CO)NC(=O)c1cc(-c2ccc(Cl)cc2)nn(-c2cnn(C)c2)c1=O
456 nM: IC50 (second compound 0.316 µM)
active: viability, T/C [4] 4.71% | viability, T/C [5] 2.59% | viability, T/C [6] 1.67% | viability, T/C [10] 4.94% | viability, T/C [11] 5.79% | viability, T/C [12] 4.67% | viability, T/C [16] 1.75% | viability, T/C [17] 2.44% | viability, T/C [18] 1.47% | viability, T/C [22] 3.13% | viability, T/C [23] 3.56% | viability, T/C [24] 0.65% | viability, T/C [28] 1.76% | viability, T/C [29] 1.75% | viability, T/C [30] 1.1%
230 nM: IC50 (second compound 3.16 µM)
501 nM: IC50 (second compound 1 µM)
inactive: viability, T/C [1] 115% | viability, T/C [2] 116% | viability, T/C [3] 39.2% | viability, T/C [7] 90.5% | viability, T/C [8] 94.2% | viability, T/C [9] 70.9% | viability, T/C [13] 95.2% | viability, T/C [14] 93.9% | viability, T/C [15] 82.1% | viability, T/C [19] 91.5% | viability, T/C [20] 107% | viability, T/C [21] 31.2% | viability, T/C [25] 113% | viability, T/C [26] 65.8% | viability, T/C [27] 32.6%
269 nM: IC50 (second compound 0.1 µM)
167 nM: IC50 (second compound 10 µM)

— PubChem BioAssay AID1919004 (Molecular Pharmacology Branch, DTP, NCI, 2023)
